For 80 compounds, LC retention time results are on record in the RepoRT retention time repository (doi:10.1021/es4044374).

This data set is described as follows: RP, Waters XBridge C18, 50 × 2.1 mm, 3.5 µm, 30 °C, 0.2 mL/min, estimated dead time 0.55 min; A: water + 0.1% formic acid, pH 3; B: methanol + 0.1% formic acid, pH 3; gradient (min/%B) 0/10 4/50 17/95 25/95 25.1/10 30/10. The settings on record: stereoisomer not certain.
For the compound `CCOc1nc2cccc(C(=O)O)c2n1Cc1ccc(-c2ccccc2-c2nn[nH]n2)cc1` [Candesartan], the LC retention time was 9.3 min.

For the compound `NC(=O)N1c2ccccc2C2OC2c2ccccc21` (stereo not given) [Carbamazepine-10,11-epoxide], the LC retention time was 6.3 min.

`NC(=O)N1c2ccccc2C=Cc2ccccc21` [Carbamazepine]: the LC retention time is 7.8 min.

Take `CCNC(=O)C(C)OC(=O)Nc1ccccc1` (stereo not given) [Carbetamide]: the LC retention time is 6.6 min.

Take `O=C(O)COCCN1CCN(C(c2ccccc2)c2ccc(Cl)cc2)CC1` (stereo not given) [Cetirizine]: the LC retention time is 9.3 min.

With `Nc1cnn(-c2ccccc2)c(=O)c1Cl` [Chloridazon], the LC retention time was 5.2 min.

With `Nc1cn[nH]c(=O)c1Cl` [Chloridazone-desphenyl], the LC retention time was 1.3 min.

On to `Cn1ncc(N)c(Cl)c1=O` [Chloridazone-methyl-desphenyl], for which the LC retention time is 2.2 min.

Take `COP(=S)(OC)Oc1nc(Cl)c(Cl)cc1Cl` [Chlorpyrifos-methyl]: the LC retention time is 14 min.

For the compound `CCOP(=S)(OCC)Oc1nc(Cl)c(Cl)cc1Cl` [Chlorpyrifos], the LC retention time is 16 min.

For the compound `Cc1ccc(NC(=O)N(C)C)cc1Cl` [Chlortoluron], the LC retention time is 8.2 min.

For `CC1(C)CC1C(=O)NC(=CCCCCSCC(N)C(=O)O)C(=O)O` (stereo not given) [Cilastatin], the LC retention time was 5.2 min.

Consider `O=C(O)c1cn(C2CC2)c2cc(N3CCNCC3)c(F)cc2c1=O` [Ciprofloxacin], for which the LC retention time was 4.5 min.

In the case of `CN(C)CCCC1(c2ccc(F)cc2)OCc2cc(C#N)ccc21` (stereo not given) [Citalopram], the LC retention time was 6.6 min.

Consider `CCC1OC(=O)C(C)C(OC2CC(C)(OC)C(O)C(C)O2)C(C)C(OC2OC(C)CC(N(C)C)C2O)C(C)(OC)CC(C)C(=O)C(C)C(O)C1(C)O` (stereo not given) [Clarithromycin], for which the LC retention time is 9.7 min.

For `CC(C)(C)C(=O)C(Oc1ccc(Cl)cc1)n1ccnc1` (stereo not given) [Climbazol], the LC retention time was 8.1 min.

Turning to `CCCC1CC(C(=O)NC(C(C)Cl)C2OC(SC)C(O)C(O)C2O)N(C)C1` (stereo not given) [Clindamycin], the LC retention time was 6.7 min.

As to `CC(C)(Oc1ccc(Cl)cc1)C(=O)O` [Clofibric acid], the LC retention time was 10 min.

On to `CC1(C)CON(Cc2ccccc2Cl)C1=O` [Clomazone], for which the LC retention time was 9.4 min.

For `O=C(O)C(c1ccccc1Cl)N1CCc2sccc2C1` (stereo not given) [Clopidogrel carboxylic acid], the LC retention time was 5.7 min.

Regarding `CNC(=N[N+](=O)[O-])NCc1cnc(Cl)s1` [Clothianidin], the LC retention time is 4.9 min.

`Clc1ccccc1C(c1ccccc1)(c1ccccc1)n1ccnc1` [Clotrimazole]: the LC retention time is 8.8 min.

Turning to `CN1CCN(C2=Nc3cc(Cl)ccc3Nc3ccccc32)CC1` [Clozapine], the LC retention time is 6.4 min.

For the compound `COC(=O)C1C(OC(=O)c2ccccc2)CC2CCC1N2C` (stereo not given) [Cocaine], the LC retention time is 5 min.

For the compound `COc1ccc2c3c1OC1C(O)C=CC4C(C2)N(C)CCC341` (stereo not given) [Codeine], the LC retention time was 2.8 min.

Take `CCNc1nc(Cl)nc(NC(C)(C)C#N)n1` [Cyanazine]: the LC retention time is 6.6 min.

For the compound `O=S(=O)(O)NC1CCCCC1` [Cyclamate], the LC retention time was 3.6 min.

On to `O=P1(N(CCCl)CCCl)NCCCO1` (stereo not given) [Cyclophosphamide], for which the LC retention time is 6.3 min.

As to `CCNC(=O)NC(=O)C(C#N)=NOC` [Cymoxanil], the LC retention time was 5.6 min.

As for `CC(C1CC1)C(O)(Cn1cncn1)c1ccc(Cl)cc1` (stereo not given) [Cyproconazole], the LC retention time was 11.5 min.

Turning to `Cc1cc(C2CC2)nc(Nc2ccccc2)n1` [Cyprodinil], the LC retention time was 9.4 min.

For `CNCCCC(C#N)(c1ccc(OC)c(OC)c1)C(C)C` (stereo not given) [D617], the LC retention time is 6.3 min.

Regarding `CCCCCCCCCC[N+](C)(C)[O-]` [DDAO], the LC retention time was 10.4 min.

`CCN(CC)C(=O)c1cccc(C)c1` [DEET]: the LC retention time is 8.6 min.

In the case of `CCOC(=O)Nc1cccc(OC(=O)Nc2ccccc2)c1` [Desmedipham], the LC retention time is 9.2 min.

For the compound `CC1CC2C3CCC4=CC(=O)C=CC4(C)C3(F)C(O)CC2(C)C1(O)C(=O)CO` (stereo not given) [Dexamethasone], the LC retention time is 9.5 min.

Take `COc1ccc2c(c1)C13CCCCC1C(C2)N(C)CC3` (stereo not given) [Dextromethorphan]: the LC retention time was 6.6 min.

With `CC(=O)Nc1c(I)c(NC(C)=O)c(I)c(C(=O)O)c1I` [Diatrizoate], the LC retention time was 1.6 min.

Take `CN1C(=O)CN=C(c2ccccc2)c2cc(Cl)ccc21` [Diazepam]: the LC retention time was 10.1 min.

As to `CCOP(=S)(OCC)Oc1cc(C)nc(C(C)C)n1` [Diazinon], the LC retention time is 13 min.

Regarding `CCOP(=O)(OCC)Oc1cc(C)nc(C(C)C)n1` [Diazoxon], the LC retention time is 9.5 min.

As for `COc1c(Cl)ccc(Cl)c1C(=O)O` [Dicamba], the LC retention time was 7 min.

For the compound `N#Cc1c(Cl)cccc1Cl` [Dichlobenil], the LC retention time is 8.5 min.

`CC(Oc1ccc(Cl)cc1Cl)C(=O)O` (stereo not given) [Dichlorprop]: the LC retention time was 10.7 min.

Consider `O=C(O)Cc1ccccc1Nc1c(Cl)cccc1Cl` [Diclofenac], for which the LC retention time is 12.8 min.

For `CC1COC(Cn2cncn2)(c2ccc(Oc3ccc(Cl)cc3)cc2Cl)O1` (stereo not given) [Difenoconazole], the LC retention time is 14.1 min.

With `O=C(Nc1ccc(F)cc1F)c1cccnc1Oc1cccc(C(F)(F)F)c1` [Diflufenican], the LC retention time was 14.4 min.

Take `COCCOCCOC` [Diglyme]: the LC retention time was 3.2 min.

As to `COCCN(C(=O)CS(=O)(=O)O)c1c(C)cccc1C` [Dimethachlor ESA], the LC retention time is 5.9 min.

Turning to `COCCN(C(=O)C(=O)O)c1c(C)cccc1C` [Dimethachlor OXA], the LC retention time is 6.6 min.

On to `COCCN(C(=O)CCl)c1c(C)cccc1C` [Dimethachlor], for which the LC retention time was 9.1 min.

With `COCC(C)N(C(=O)C(=O)O)c1c(C)csc1C` (stereo not given) [Dimethenamid OXA], the LC retention time was 7.5 min.

On to `COCC(C)N(C(=O)CCl)c1c(C)csc1C` (stereo not given) [Dimethenamid-P], for which the LC retention time is 10 min.

As for `COCC(C)N(C(=O)CS(=O)(=O)O)c1c(C)csc1C` (stereo not given) [Dimethenamide ESA], the LC retention time is 6.7 min.

As to `CNC(=O)CSP(=S)(OC)OC` [Dimethoate], the LC retention time was 5.2 min.

On to `COc1ccc(C(=CC(=O)N2CCOCC2)c2ccc(Cl)cc2)cc1OC` [Dimethomorph], for which the LC retention time was 10.8 min.

For `CCC(C)c1cc([N+](=O)[O-])cc([N+](=O)[O-])c1O` (stereo not given) [Dinoseb], the LC retention time is 13 min.

As to `CC(=O)N(C)N(C(=O)C(=O)N(C)C)c1ccccc1` [Dioxoaminopyrine], the LC retention time was 5.2 min.

Turning to `NC(=O)Nc1ccc(Cl)c(Cl)c1` [Diuron-desdimethyl], the LC retention time was 8.3 min.

Consider `CNC(=O)Nc1ccc(Cl)c(Cl)c1` [Diuron-desmethyl], for which the LC retention time was 8.5 min.

With `CN(C)C(=O)Nc1ccc(Cl)c(Cl)c1` [Diuron], the LC retention time is 8.9 min.

Regarding `CCCCc1oc2ccc(NS(C)(=O)=O)cc2c1C(=O)c1ccc(OCCCN(CCCC)CCCC)cc1` [Dronedarone], the LC retention time was 11.5 min.

Consider `CC=C1N(C)C(C)CC1(c1ccccc1)c1ccccc1` (stereo not given) [EDDP], for which the LC retention time was 6.5 min.

As for `CNC(C)C(O)c1ccccc1` (stereo not given) [Ephedrine], the LC retention time was 2.9 min.

As for `Fc1ccc(C2(Cn3cncn3)OC2c2ccccc2Cl)cc1` (stereo not given) [Epoxiconazole], the LC retention time was 11.7 min.

For the compound `CCCCc1ncc(C=C(Cc2cccs2)C(=O)O)n1Cc1ccc(C(=O)O)cc1` [Eprosartan], the LC retention time is 6.3 min.

Take `CCC1OC(=O)C(C)C(OC2CC(C)(OC)C(O)C(C)O2)C(C)C(OC2OC(C)CC(N(C)C)C2O)C(C)(O)CC(C)C(=O)C(C)C(O)C1(C)O` (stereo not given) [Erythromycin]: the LC retention time was 8.5 min.

Turning to `CCC(CO)NCCNC(CC)CO` (stereo not given) [Ethambutol], the LC retention time was 9.6 min.

For `CC1(C)C(=O)Oc2ccc(OS(C)(=O)=O)cc21` [Ethofumesate-2-keto], the LC retention time was 6 min.

As for `CCOC1Oc2ccc(OS(C)(=O)=O)cc2C1(C)C` (stereo not given) [Ethofumesate], the LC retention time was 10 min.

Turning to `C=C1CC2C(CCC3(C)C(=O)CCC23)C2(C)C=CC(=O)C=C12` (stereo not given) [Exemestane], the LC retention time was 10.1 min.

For `CC(C)OC(=O)C(C)(C)Oc1ccc(C(=O)c2ccc(Cl)cc2)cc1` [Fenofibrate], the LC retention time is 15.7 min.

As to `CC(C)(Oc1ccc(C(=O)c2ccc(Cl)cc2)cc1)C(=O)O` [Fenofibric acid], the LC retention time is 12.6 min.

Regarding `CCOC(=O)NCCOc1ccc(Oc2ccccc2)cc1` [Fenoxycarb], the LC retention time is 12.6 min.

With `CC(Cc1ccc(C(C)(C)C)cc1)CN1CCCCC1` (stereo not given) [Fenpropidin], the LC retention time is 9.5 min.

`CC(Cc1ccc(C(C)(C)C)cc1)CN1CC(C)OC(C)C1` (stereo not given) [Fenpropimorph]: the LC retention time is 9.4 min.

On to `N#Cc1nn(-c2c(Cl)cc(C(F)(F)F)cc2Cl)c(N)c1C(F)(F)F` [Fipronil-desulfinyl], for which the LC retention time was 12.5 min.

Take `N#Cc1nn(-c2c(Cl)cc(C(F)(F)F)cc2Cl)c(N)c1SC(F)(F)F` [Fipronil-sulfide]: the LC retention time is 13 min.

Turning to `N#Cc1nn(-c2c(Cl)cc(C(F)(F)F)cc2Cl)c(N)c1S(=O)(=O)C(F)(F)F` [Fipronil-sulfone], the LC retention time was 13.5 min.

For `N#Cc1nn(-c2c(Cl)cc(C(F)(F)F)cc2Cl)c(N)c1S(=O)C(F)(F)F` (stereo not given) [Fipronil], the LC retention time is 12.6 min.
